Tests used:
U-251 [1] = experiment: Cytotoxicity exhibited by the compound for total growth inhibition of CNS cancer U251 cell line; type: functional; conditions: Homo sapiens
SNB-75 [2] = experiment: Concentration for 50% cell kill against CNS cancer SNB-75 cell line was determined; type: functional; conditions: Homo sapiens, read-out: LC50 (the source's name)
M14 = experiment: Concentration for 50% cell kill against melanoma M14 cell line was determined; type: functional; conditions: Homo sapiens, read-out: LC50 (the source's name)
K562 = experiment: Effective dose to show cytotoxicity against leukemia K-562 cell line was determined; type: functional; conditions: Homo sapiens, read-out: ED50 (the source's name)
MDA-N [3] = experiment: Effective dose to show cytotoxicity against breast cancer MDA-N cell line was determined; type: functional; conditions: Homo sapiens, read-out: ED50 (the source's name)
IGROV-1 [4] = experiment: Effective dose to show cytotoxicity against ovarian cancer IGROV 1 cell line was determined; type: functional; conditions: Homo sapiens, read-out: ED50 (the source's name)
COLO 205 = experiment: Effective dose to show cytotoxicity against colon cancer COLO 205 cell line was determined; type: functional; conditions: Homo sapiens, read-out: ED50 (the source's name)
RXF 393 = experiment: Cytotoxicity exhibited by the compound for total growth inhibition of renal cancer RXF 393 cell line; type: functional; conditions: Homo sapiens
KM12 [5] = experiment: Cytotoxicity exhibited by the compound for total growth inhibition of colon cancer KM-12 cell line; type: functional; conditions: Homo sapiens
U-251 [6] = experiment: The compound was evaluated for cytotoxicity against U251 CNS cancer cell line; type: functional; conditions: Homo sapiens
MDA-N [7] = experiment: The compound was evaluated for cytotoxicity against MDA-N breast cancer cell line; type: functional; conditions: Homo sapiens
MOLT-4 [8] = experiment: Effective dose to show cytotoxicity against leukemia MOLT-4 cell line was determined; type: functional; conditions: Homo sapiens, read-out: ED50 (the source's name)
OVCAR-8 = experiment: Effective dose to show cytotoxicity against ovarian cancer OVCAR-8 cell line was determined; type: functional; conditions: Homo sapiens, read-out: ED50 (the source's name)
MDA-N [9] = experiment: Concentration for 50% cell kill against breast cancer MDA-N cell line was determined; type: functional; conditions: Homo sapiens, read-out: LC50 (the source's name)
SNB-75 [10] = experiment: Cytotoxicity exhibited by the compound for total growth inhibition of CNS cancer SNB-75 cell line; type: functional; conditions: Homo sapiens
NCI-H322M = experiment: Concentration for 50% cell kill against non-small cell lung cancer NCI-H322M cell line was determined; type: functional; conditions: Homo sapiens, read-out: LC50 (the source's name)
KM12 [11] = experiment: Effective dose to show cytotoxicity against colon cancer KM-12 cell line was determined; type: functional; conditions: Homo sapiens, read-out: ED50 (the source's name)
CCRF-CEM = experiment: Effective dose to show cytotoxicity against leukemia CCRF-CEM cell line was determined; type: functional; conditions: Homo sapiens, read-out: ED50 (the source's name)
Malme-3M = experiment: Concentration for 50% cell kill against melanoma MALME-3M cell line was determined; type: functional; conditions: Homo sapiens, read-out: LC50 (the source's name)
NCI-H23 [12] = experiment: Effective dose to show cytotoxicity against non-small cell lung cancer NCI-H23 cell line was determined; type: functional; conditions: Homo sapiens, read-out: ED50 (the source's name)
OVCAR-3 [13] = experiment: Concentration for 50% cell kill against ovarian cancerOVCAR-3 cell line was determined; type: functional; conditions: Homo sapiens, read-out: LC50 (the source's name)
PC-3 [14] = experiment: Effective dose to show cytotoxicity against prostate cancer PC-3 cell line was determined; type: functional; conditions: Homo sapiens, read-out: ED50 (the source's name)
PC-3 [15] = experiment: Cytotoxicity exhibited by the compound for total growth inhibition of prostate cancer PC-3 cell line; type: functional; conditions: Homo sapiens
SN12C = experiment: Concentration for 50% cell kill against renal cancer SN12C cell line was determined; type: functional; conditions: Homo sapiens, read-out: LC50 (the source's name)
HL-60 [16] = experiment: Effective dose to show cytotoxicity against leukemia HL-60 (TB) cell line was determined; type: functional; conditions: Homo sapiens, read-out: ED50 (the source's name)
[17] = system: MDA-MB-435 (Homo sapiens); experiment: Effective dose to show cytotoxicity against breast cancer MDA-MB-435 cell line was determined; conditions: read-out: ED50 (the source's name)
SNB-19 [18] = experiment: Concentration for 50% cell kill against CNS cancer SNB-19 cell line was determined; type: functional; conditions: Homo sapiens, read-out: LC50 (the source's name)
PC-3 [19] = experiment: The compound was evaluated for cytotoxicity against PC-3 prostate cancer cell line; type: functional; conditions: Homo sapiens
CAKI-1 [20] = experiment: Cytotoxicity exhibited by the compound for total growth inhibition of renal cancer CAKI-1 cell line; type: functional; conditions: Homo sapiens
SR = experiment: Cytotoxicity exhibited by the compound for total growth inhibition of leukemia SR cell line; type: functional; conditions: Homo sapiens
NCI-H522 = experiment: Effective dose to show cytotoxicity against non-small cell lung cancer NCI-H522 cell line was determined; type: functional; conditions: Homo sapiens, read-out: ED50 (the source's name)
LOX IMVI [21] = experiment: The compound was evaluated for cytotoxicity against LOX-IMVI melanoma cell line; type: functional; conditions: Homo sapiens
LOX IMVI [22] = experiment: Concentration for 50% cell kill against melanoma LOX IMVI cell line was determined; type: functional; conditions: Homo sapiens, read-out: LC50 (the source's name)
NCI-H23 [23] = experiment: Concentration for 50% cell kill against non-small cell lung cancer NCI-H23 cell line was determined; type: functional; conditions: Homo sapiens, read-out: LC50 (the source's name)
PC-3 [24] = experiment: Concentration for 50% cell kill against prostate cancerPC-3 cell line was determined; type: functional; conditions: Homo sapiens, read-out: LC50 (the source's name)
CAKI-1 [25] = experiment: Effective dose to show cytotoxicity against renal cancerCAKI-1 cell line was determined; type: functional; conditions: Homo sapiens, read-out: ED50 (the source's name)
RPMI-8226 [26] = experiment: Concentration for 50% cell kill against leukemia RPMI-8226 cell line was determined; type: functional; conditions: Homo sapiens, read-out: LC50 (the source's name)
SNB-19 [27] = experiment: Cytotoxicity exhibited by the compound for total growth inhibition of CNS cancer SNB-19 cell line; type: functional; conditions: Homo sapiens
IGROV-1 [28] = experiment: The compound was evaluated for cytotoxicity against IGROV1 ovarian cancer cell line; type: functional; conditions: Homo sapiens
OVCAR-3 [29] = experiment: Cytotoxicity exhibited by the compound for total growth inhibition of ovarian cancer OVCAR-3 cell line; type: functional; conditions: Homo sapiens
RPMI-8226 [30] = experiment: Cytotoxicity exhibited by the compound for total growth inhibition of leukemia RPMI-8226 cell line; type: functional; conditions: Homo sapiens
MDA-N [31] = experiment: Cytotoxicity exhibited by the compound for total growth inhibition of breast cancer MDA-N cell line; type: functional; conditions: Homo sapiens
U-251 [32] = experiment: Effective dose to show cytotoxicity against CNS cancer U251 cell line was determined; type: functional; conditions: Homo sapiens, read-out: ED50 (the source's name)
HL-60 [33] = experiment: Concentration for 50% cell kill against leukemia HL-60 (TB) cell line was determined; type: functional; conditions: Homo sapiens, read-out: LC50 (the source's name)
MOLT-4 [34] = experiment: The compound was evaluated for cytotoxicity against MOLT-4 leukemia cell line; type: functional; conditions: Homo sapiens
MDA-MB-453 = experiment: Concentration for 50% cell kill against breast cancer MDA-MB-435 cell line was determined; type: functional; conditions: Homo sapiens, read-out: LC50 (the source's name)
[35] = system: MDA-MB-435 (Homo sapiens); experiment: Cytotoxicity exhibited by the compound for total growth inhibition of breast cancer MDA-MB-435 cell line

SMILES: Cc1c2ccncc2c(C)c2c1[nH]c1ccc(CO)cc12
- TGI (U-251 [1]): > 100000 nM
- CC50 (SNB-75 [2]): 14900 nM
- CC50 (M14): 34100 nM
- EC50 (K562): 30 nM
- EC50 (MDA-N [3]): 350 nM
- EC50 (IGROV-1 [4]): 180 nM
- EC50 (COLO 205): 240 nM
- TGI (RXF 393): 3890 nM
- TGI (KM12 [5]): 1520 nM
- GI50 (U-251 [6]): 280 nM
- GI50 (MDA-N [7]): 350 nM
- EC50 (MOLT-4 [8]): 10 nM
- EC50 (OVCAR-8): 420 nM
- CC50 (MDA-N [9]): 4330 nM
- TGI (SNB-75 [10]): 2630 nM
- CC50 (NCI-H322M): 35300 nM
- EC50 (KM12 [11]): 160 nM
- EC50 (CCRF-CEM): 60 nM
- CC50 (Malme-3M): 820 nM
- EC50 (NCI-H23 [12]): 680 nM
- CC50 (OVCAR-3 [13]): 46200 nM
- EC50 (PC-3 [14]): 450 nM
- TGI (PC-3 [15]): 3600 nM
- CC50 (SN12C): 1910 nM
- EC50 (HL-60 [16]): 20 nM
- EC50 [17]: 240 nM
- CC50 (SNB-19 [18]): 56200 nM
- GI50 (PC-3 [19]): 450 nM
- TGI (CAKI-1 [20]): 13400 nM
- TGI (SR): 490 nM
- EC50 (NCI-H522): 300 nM
- GI50 (LOX IMVI [21]): 370 nM
- CC50 (LOX IMVI [22]): > 100000 nM
- CC50 (NCI-H23 [23]): 79000 nM
- CC50 (PC-3 [24]): 23300 nM
- EC50 (CAKI-1 [25]): 370 nM
- CC50 (RPMI-8226 [26]): 5570 nM
- TGI (SNB-19 [27]): 11500 nM
- GI50 (IGROV-1 [28]): 180 nM
- TGI (OVCAR-3 [29]): 52100 nM
- TGI (RPMI-8226 [30]): 220 nM
- TGI (MDA-N [31]): 1690 nM
- EC50 (U-251 [32]): 280 nM
- CC50 (HL-60 [33]): 900 nM
- GI50 (MOLT-4 [34]): 10 nM
- CC50 (MDA-MB-453): 6020 nM
- TGI [35]: 1610 nM
